Reference: publication PMC10257520 (Journal of medicinal chemistry, 2022)
pIC50: −log10 of the molar value. Like-named read-outs stand apart in the source and are kept apart here.

Key:
[1] = tested on: NCI-60 human tumor cell lines; test: cells
[2] = tested on: PC-12 cells; test: MTT cytotoxicity on undifferentiated and differentiated PC-12 cells; format: cell-based; settings: MTT after 24 h of treatment
[3] = tested on: SH-SY5Y cells; test: MTT cell viability assay, SH-SY5Y neuroblastoma cells; format: cell-based, human; settings: 0.5×, 1×, 2× IC50 of the controls on H522; HY-1 at 2.32 μM
[4] = tested on: LOXIMVI; settings: read-out: GI50, LOXIMVI; five-dose assay; ref public data base of NCI (NSC 759852); cited from earlier work
[5] = tested on: RPMI-8226; settings: read-out: GI50, RPMI-8226; five-dose assay; ref public data base of NCI (NSC 759852); cited from earlier work
[6] = tested on: NCI-H522 cells; test: Time-lapse microscopy of cell death; format: cell-based, human; settings: for Time from initiation of ferroptosis until most/all cells were dead: CETZOLE-1 20 μM (most of the cells), HY-1 5 μM (all cells); for Start of ferroptosis after treatment: CETZOLE-1 20 μM, HY-1 5 μM
[7] = tested on: SF-539 cell line; settings: read-out: GI50, SF-539; five-dose assay; ref public data base of NCI (NSC 759852); cited from earlier work
[8] = tested on: PC-3; settings: read-out: GI50, PC-3; five-dose assay; ref public data base of NCI (NSC 759852); cited from earlier work
[9] = tested on: NCI-H23; settings: read-out: GI50, NCI-H23; five-dose assay; ref public data base of NCI (NSC 759852); cited from earlier work
[10] = tested on: NCI-H23 cell line; settings: one-dose; ref public data base of NCI (NSC 759852); cited from earlier work
[11] = tested on: DU-145; settings: read-out: GI50, DU-145; five-dose assay; ref public data base of NCI (NSC 759852); cited from earlier work
[12] = tested on: IGROV-1; settings: read-out: GI50, IGROV-1; five-dose assay; ref public data base of NCI (NSC 759852); cited from earlier work
[13] = tested on: DU-145 cells; settings: one-dose; ref public data base of NCI (NSC 759852); cited from earlier work
[14] = tested on: HS578; settings: read-out: GI50, HS578; five-dose assay; ref public data base of NCI (NSC 759852); cited from earlier work
[15] = tested on: HDAC 1, 2, 3, 4, 6, and 8; settings: recombinant HDAC proteins
[16] = tested on: Class I HDACs; settings: read-out: IC50 for Class I HDACs; recombinant HDAC proteins
[17] = tested on: PC-3; test: cells; settings: Homo sapiens, PC-3, read-out: GI50, PC-3
[18] = tested on: LOXIMVI; test: cells; settings: Homo sapiens, LOX IMVI, read-out: GI50, LOXIMVI
[19] = tested on: lipid peroxides in NCI-H522 cells; test: C11-BODIPY lipid peroxidation assay; format: cell-based, human; settings: NCI-H522, 10 μM, 6 h
[20] = tested on: DU-145; test: cells; settings: Homo sapiens, DU-145, read-out: GI50, DU-145
[21] = tested on: IGROV-1; test: cells; settings: Homo sapiens, IGROV-1, read-out: GI50, IGROV-1
[22] = tested on: RPE cells; test: cells; settings: Homo sapiens, read-out: IC50 on RPE cells

With C#Cc1nc(/C=C/CCCCCC(=O)NO)cs1 [HY-3, (E)-8-(2-Ethynylthiazol-4-yl)-N-hydroxyoct-7-enamide] the GI50 ([1]; read-out: Average GI50) was 3390 nM.

With C#Cc1nc(C(=O)NCCCCCCC(=O)OC)cs1 [FC-1, Methyl 7-(2-Ethynylthiazole-4-carboxamido)heptanoate] the “Effect on PC-12 cells (differentiated and undifferentiated)” value [2] was “resistant” and the “Effect on neuronal cells (SH-SY5Y viability, neurotoxicity)” value (shortened to “Effect on neuronal cells”) [3] was “significant neurotoxicity”.

For O=C(CCCCCCC(=O)Nc1ccccc1)NO [SAHA], the GI50 [4] is given as 1250 nM, the GI50 [5] is given as 1500 nM and the “Time after treatment at which cells were still alive” value ([6]; SAHA 5 μM) is given as at least 60 h. The GI50 [7] was 2000 nM, the GI50 [8] was 1580 nM and the GI50 [9] was 2000 nM. For the same molecule, the “Growth %, NCI-H23” value [10] was 3.30%, the GI50 [11] was 1250 nM and the GI50 [12] was 2000 nM. The “Growth %, DU-145” value [13] was 3.5% and the GI50 [14] was 2000 nM.

In the case of COC(=O)CCCCCCNC(=O)c1csc(Br)n1 [NC-1, Methyl 7-(2-Bromothiazole-4-carboxamido)heptanoate], the “Effect on neuronal cells” value [3] was “no effect”.

With O=C(/C=C/C=C/c1csc(Br)n1)NO [HC-4, (2E,4E)-5-(2-Bromothiazol-4-yl)-N-hydroxypenta-2,4-dienamide] the HDAC inhibitory activity [15] was “poor HDAC inhibitory activity”.

C#Cc1nc(/C=C/C(=O)NO)cs1 [HY-5, (E)-3-(2-Ethynylthiazol-4-yl)-N-hydroxyacrylamide] showed a GI50 ([1]; read-out: Average GI50) of 2470 nM and a pIC50 [16] of 5.96 to 6.05.

With C#Cc1nc(/C=C\CCCCCC(=O)NO)cs1 [HY-2, (Z)-8-(2-Ethynylthiazol-4-yl)-N-hydroxyoct-7-enamide] the GI50 ([1]; read-out: Average GI50) was 2180 nM.

In the case of C#Cc1nc(/C=C/C=C/C(=O)NO)cs1 [HY-4, (2E,4E)-5-(2-Ethynylthiazol-4-yl)-N-hydroxypenta-2,4-dienamide], the “Effect on neuronal cells” value [3] was “not showing attenuated neurotoxicity” and the HDAC inhibitory activity [15] was “poor HDAC inhibitory activity”.

In the case of C#Cc1nc(C(=O)NCCCCCCC(=O)NO)cs1 [HY-1, 2-Ethynyl-N-(7-(hydroxyamino)-7-oxoheptyl)thiazole-4-carboxamide], the GI50 ([1]; read-out: Average GI50) was 850 nM, the GI50 ([1]; read-out: GI50 values as low as (best cell line)) was 20 nM and the “Effect on PC-12 cells (differentiated and undifferentiated)” value [2] was “behaved like the HDAC control HC-1”. For the same molecule, the GI50 [17] was 2000 nM, the “Time from initiation of ferroptosis until most/all cells were dead” value [6] was at most 2 h and the “Start of ferroptosis after treatment” value [6] was 8 h. The “Effect on neuronal cells” value [3] was “no neurotoxic effects”, the GI50 [18] was 20 nM and the “Lipid peroxide levels (C11-BODIPY 581/591)” value [19] was “increased levels of lipid peroxides”. It also gave a GI50 [20] of 360 nM and a GI50 [21] of 570 nM.

For O=C(CCCCCCNC(=O)c1csc(Br)n1)NO [HC-1, 2-Bromo-N-(7-(hydroxyamino)-7-oxoheptyl)thiazole-4-carboxamide], the GI50 ([1]; read-out: Average GI50) was 1510 nM and the “Effect on neuronal cells” value [3] was “very mild toxicity”.

With C#Cc1nc(C2=C(C)[C@@H](O)CC2)cs1 [CETZOLE-1] the pIC50 [22] was under 4.52, the “Time from initiation of ferroptosis until most/all cells were dead” value [6] was at most 8 h and the “Start of ferroptosis after treatment” value [6] was “approximately 12 h”.
